Assay results as given in ChEMBL document CHEMBL1138686, “Discovery of potent antagonists of the antiapoptotic protein XIAP for the treatment of cancer” (J Med Chem, 2004).
Where “and” joins values, the source holds several entries; their conditions need not be identical. Equal entries are not always repeated. Numbered stars: 1 amine (or outer) side, 2 acyl side, 3 side chain; on linkers, the order of the positions; unused ones are H or OH. Square brackets hold non-standard residues; d marks the D form. Peptide text beside a SMILES is read from it. ξ: configuration not given here. Phe(4-Cl) = N[C@@H](Cc1ccc(Cl)cc1)C(=O)O; 1Nal = N[C@@H](Cc1cccc2ccccc12)C(=O)O; 2Nal = N[C@@H](Cc1ccc2ccccc2c1)C(=O)O; X1 = O=C([C@@H]1CC(O)CN1[*:1])[*:2]; hPhe = N[C@@H](CCc1ccccc1)C(=O)O; Phg = N[C@H](C(=O)O)c1ccccc1; Tle = CC(C)(C)[C@H](N)C(=O)O; Nle = CCCC[C@H](N)C(=O)O; ξPip = O=C(O)C1CCCCN1; Aib = CC(C)(N)C(=O)O; ξNMeA = CNC(C)C(=O)O; ξAze = O=C(O)C1CCN1; Sar = CNCC(=O)O

Legend:
[1] = The compound was tested for toxicity against human breast cancer cell line MDA-MB-231; assay type: functional, cell-based; settings: cancer cell lines
[2] = The compound was tested for toxicity against human ovarian cancer cell line SK-OV-3; assay type: functional, cell-based; settings: cancer cell lines
HL-60 = assay: cells; settings: Homo sapiens
Description: The compound was tested for toxicity against human leukemia cancer cell line HL-60

[3] = The compound was tested for toxicity against human renal cancer cell line RXF-393; assay type: functional, cell-based; settings: cancer cell lines
[4] = The compound was tested for toxicity against human breast cancer cell line BT-549; assay type: functional, cell-based; settings: cancer cell lines
[5] = The compound was tested for toxicity against human NSCL cancer cell line NCI-H522; assay type: functional, cell-based; settings: cancer cell lines
[6] = The compound was tested for toxicity against human NSCL cancer cell line NCI-H23; assay type: functional, cell-based; settings: cancer cell lines
SK-MEL-5 = assay: cells; settings: Homo sapiens
Description: The compound was tested for toxicity against human melanoma cancer cell line SK-MEL-5

[7] = target: T1, E3 ubiquitin-protein ligase XIAP (Homo sapiens, UniProt P98170); assay: Binding affinity to the BIR3 domain of X-linked IAP
T1 sequence (P98170 whole entry, the tested form may be a part): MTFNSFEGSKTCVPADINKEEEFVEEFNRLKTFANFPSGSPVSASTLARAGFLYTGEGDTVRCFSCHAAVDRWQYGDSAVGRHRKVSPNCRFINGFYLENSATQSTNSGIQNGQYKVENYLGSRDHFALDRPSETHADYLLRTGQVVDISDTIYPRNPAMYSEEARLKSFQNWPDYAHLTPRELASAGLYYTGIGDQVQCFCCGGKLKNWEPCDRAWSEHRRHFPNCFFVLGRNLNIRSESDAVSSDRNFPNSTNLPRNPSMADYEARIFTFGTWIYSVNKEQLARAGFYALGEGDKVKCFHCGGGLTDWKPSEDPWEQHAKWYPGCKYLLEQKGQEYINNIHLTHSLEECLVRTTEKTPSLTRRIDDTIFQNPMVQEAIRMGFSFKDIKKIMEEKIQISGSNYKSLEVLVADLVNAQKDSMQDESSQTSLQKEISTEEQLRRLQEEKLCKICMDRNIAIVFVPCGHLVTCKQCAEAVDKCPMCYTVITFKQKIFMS

[8] = target: T1, E3 ubiquitin-protein ligase XIAP; assay: Relief of caspase inhibition in reconstituted assay (APAF-1, caspase-9, procaspase-3) with XIAP
[9] = target: T1, E3 ubiquitin-protein ligase XIAP; assay: Relief of caspase inhibition in reconstituted assay (APAF-1, caspase-9, procaspase-3) with BIR3 domain of XIAP

Kd [7]	Compound	also measured
–	CN[C@@H](C)C(=O)N[C@H](C(=O)N1CCC[C@H]1C(=O)N[C@@H]1CCCc2ccccc21)C(C)(C)C	EC50 [1]: 0.06 µM; EC50 [2]: 1.5 µM; EC50 (HL-60): 0.99 µM; EC50 [3]: 0.81 µM; EC50 [4]: 0.01 µM; EC50 [5]: 1.7 µM; EC50 [6]: 5.3 µM; EC50 (SK-MEL-5): 1.3 µM
0.09 µM and 0.12 µM	CC(C)[C@@H](NC(=O)[C@H](C)N)C(=O)N1CCC[C@H]1C(=O)N[C@@H](Cc1ccccc1)C(=O)N[C@@H](Cc1ccc(O)cc1)C(=O)O	–
–	CN[C@@H](C)C(=O)N[C@H](C(=O)N1CCC[C@H]1C(=O)N[C@H]1CCCc2ccccc21)C(C)(C)C	EC50 [1]: 3 µM; EC50 [2]: 5.6 µM
–	C[C@@H](C(=O)N[C@H](C(=O)N1CCC[C@H]1C(=O)N[C@@H]1CCCc2ccccc21)C1CCCCC1)N(C)C	EC50 [1]: 3.4 µM; EC50 [2]: > 25 µM; EC50 (HL-60): 4.3 µM; EC50 [3]: > 50 µM; EC50 [4]: 1 µM; EC50 [5]: > 50 µM; EC50 [6]: > 50 µM; EC50 (SK-MEL-5): 15 µM
–	CN[C@@H](C)C(=O)N[C@H](C(=O)N1CCC[C@H]1C(=O)N[C@@H]1CCCc2ccccc21)C1CCCCC1	EC50 [1]: 0.01 µM; EC50 [2]: 1.3 µM; EC50 (HL-60): 0.19 µM; EC50 [3]: 1.1 µM; EC50 [4]: 0.007 µM; EC50 [5]: 2 µM; EC50 [6]: 1.5 µM; EC50 (SK-MEL-5): 0.29 µM
0.04 µM	CN[C@@H](C)C(=O)N[C@H](C(=O)N1CCC[C@H]1C(=O)NC1c2ccccc2-c2ccccc21)C(C)(C)C	–
0.02 µM	CN[C@@H](C)C(=O)N[C@H](C(=O)N1CCC[C@H]1C(=O)N[C@@H]1CCc2ccccc21)C(C)(C)C	–
8.7 µM	CC(C)[C@@H](C(=O)N1CCC[C@H]1C(=O)N[C@@H](Cc1ccccc1)C(=O)N[C@@H](Cc1ccc(O)cc1)C(=O)O)N(C)C	–
0.16 µM	CC(C)C[C@@H](NC(=O)[C@H](C)N)C(=O)N1CCC[C@H]1C(=O)N[C@@H](Cc1ccccc1)C(=O)N[C@@H](Cc1ccc(O)cc1)C(=O)O	–
> 1 µM	CC(C(=O)N[C@H](C(=O)N1C[C@@H](Oc2ccccc2)C[C@H]1C(=O)NC1CCCc2ccccc21)C(C)(C)C)N(C)C (some centres not stated)	EC50 [8]: > 100 µM; EC50 [9]: > 100 µM
0.09 µM	CC(C)[C@H](NC(=O)[C@H](C)N)C(=O)N1CCC[C@H]1C(=O)N[C@@H](Cc1cccc2ccccc12)C(=O)N[C@@H](Cc1ccc(O)cc1)C(=O)O (H-AVP[1Nal]Y-OH)	–
0.19 µM	CC(C)[C@H](NC(=O)[C@H](C)N)C(=O)N1CCC[C@H]1C(=O)N[C@@H](Cc1ccc2ccccc2c1)C(=O)N[C@@H](Cc1ccc(O)cc1)C(=O)O (H-AVP[2Nal]Y-OH)	–
6.7 µM	CC(C)[C@H](NC(=O)[C@H](C)N)C(=O)N1CCC[C@H]1C(=O)NC(C)(C)C(=O)N[C@@H](Cc1ccc(O)cc1)C(=O)O (H-AVP[Aib]Y-OH)	–
0.9 µM	CCCC[C@H](NC(=O)[C@@H]1CCCN1C(=O)[C@@H](NC(=O)[C@H](C)N)C(C)C)C(=O)N[C@@H](Cc1ccc(O)cc1)C(=O)O (H-AVP[Nle]Y-OH)	–
0.18 µM	CC(C)[C@H](NC(=O)[C@H](C)N)C(=O)N1CCC[C@H]1C(=O)N[C@@H](Cc1ccc(Cl)cc1)C(=O)N[C@@H](Cc1ccc(O)cc1)C(=O)O (H-AVP[Phe(4-Cl)]Y-OH)	–
0.03 µM	CC(C)[C@H](NC(=O)[C@H](C)N)C(=O)N1CCC[C@H]1C(=O)N[C@H](C(=O)N[C@@H](Cc1ccc(O)cc1)C(=O)O)c1ccccc1 (H-AVP[Phg]Y-OH)	–
0.18 µM	CC(C)[C@H](NC(=O)[C@H](C)N)C(=O)N1CCC[C@H]1C(=O)N[C@@H](CCc1ccccc1)C(=O)N[C@@H](Cc1ccc(O)cc1)C(=O)O (H-AVP[hPhe]Y-OH)	–
> 20 µM	CC(C)[C@H](NC(=O)[C@H](C)N)C(=O)NC(C)(C)C(=O)N[C@@H](Cc1ccccc1)C(=O)N[C@@H](Cc1ccc(O)cc1)C(=O)O (H-AV[Aib]FY-OH)	–
0.6 µM	CC(C)[C@H](NC(=O)[C@H](C)N)C(=O)N(C)CC(=O)N[C@@H](Cc1ccccc1)C(=O)N[C@@H](Cc1ccc(O)cc1)C(=O)O (H-AV[Sar]FY-OH)	–

Kd [7]	Compound	also measured
0.8 µM	CC(C)[C@H](NC(=O)[C@H](C)N)C(=O)N1CC(O)C[C@H]1C(=O)N[C@@H](Cc1ccccc1)C(=O)N[C@@H](Cc1ccc(O)cc1)C(=O)O (some centres not stated) (H-AV[X1]FY-OH)	–
0.12 µM	CC(C)[C@H](NC(=O)[C@H](C)N)C(=O)N1CCC1C(=O)N[C@@H](Cc1ccccc1)C(=O)N[C@@H](Cc1ccc(O)cc1)C(=O)O (some centres not stated) (H-AV[ξAze]FY-OH)	–
1.6 µM	CC(C)[C@H](NC(=O)[C@H](C)N)C(=O)N(C)C(C)C(=O)N[C@@H](Cc1ccccc1)C(=O)N[C@@H](Cc1ccc(O)cc1)C(=O)O (some centres not stated) (H-AV[ξNMeA]FY-OH)	–
0.4 µM	CC(C)[C@H](NC(=O)[C@H](C)N)C(=O)N1CCCCC1C(=O)N[C@@H](Cc1ccccc1)C(=O)N[C@@H](Cc1ccc(O)cc1)C(=O)O (some centres not stated) (H-AV[ξPip]FY-OH)	–
> 20 µM	C[C@H](N)C(=O)NC(C)(C)C(=O)N1CCC[C@H]1C(=O)N[C@@H](Cc1ccccc1)C(=O)N[C@@H](Cc1ccc(O)cc1)C(=O)O (H-A[Aib]PFY-OH)	–
0.04 µM	C[C@H](N)C(=O)N[C@H](C(=O)N1CCC[C@H]1C(=O)N[C@@H](Cc1ccccc1)C(=O)N[C@@H](Cc1ccc(O)cc1)C(=O)O)C(C)(C)C (H-A[Tle]PFY-OH)	–
> 20 µM	CC(C(=O)N1CCC[C@H]1C(=O)N[C@@H](Cc1ccccc1)C(=O)N[C@@H](Cc1ccc(O)cc1)C(=O)O)N(C)C(=O)[C@H](C)N (some centres not stated) (H-A[ξNMeA]PFY-OH)	–
> 20 µM	CC(C)C(NC(=O)[C@H](C)N)C(=O)N1CCC[C@H]1C(=O)N[C@@H](Cc1ccccc1)C(=O)N[C@@H](Cc1ccc(O)cc1)C(=O)O (single isomer, unassigned)	–
–	CNC(C)C(=O)N[C@H](C(=O)N1CCC[C@H]1C(=O)N[C@@H]1CCCc2ccccc21)C(C)(C)C (single isomer, unassigned)	EC50 [1]: 8.3 µM; EC50 [2]: > 50 µM
2.7 µM	H-AGPFY-OH	–
0.05 µM	H-AKPFY-OH	–
3 µM	H-AVGFY-OH	–
3.4 µM	H-AVPFG-OH	–
0.36 µM	H-AVPIY-OH	–
0.28 µM	H-AVPLY-OH	–
0.3 µM	H-AVPYY-OH	–
9.6 µM	H-GVPFY-OH	–
0.9 µM	H-VVPFY-OH	–
